Assay results as given in patent publication US10030006B2, “Coumarin based Hsp90 inhibitors with urea and ether substituents” (University of Kansas, priority 2013, dated 2018).
Where two headings read alike, the source gives them in different places.

How the values were obtained:
Format in all cases: cell-based
[1] = test system: SKBr3 and MCF-7 cell lines; assay: Anti-proliferative activity against both breast cancer cell lines (results in words); conditions: for anti-proliferative activity (in words): SKBr3 and MCF-7, Tables 1-5
Method: (§1) Cells were maintained in a 1:1 mixture of Advanced DMEM/F12 (Gibco) supplemented with non-essential amino acids, L-glutamine (2 mM), streptomycin (500 μg/mL), penicillin (100 units/mL), and 10% FBS. Cells were grown to confluence in a humidified atmosphere (37° C., 5% CO2), seeded (2000/well, 100 μL) in 96-well plates, and allowed to attach overnight. Compound at varying concentrations in DMSO (1% DMSO final concentration) was added, and cells were returned to the incubator for 72 h. At 72 h, the number of viable cells was determined using an MTS/PMS cell proliferation kit (Promega) per the manufacturer's instructions. Cells incubated in 1% DMSO were used at 100% proliferation, and values were adjusted accordingly. IC50 values were calculated from separate experiments performed in triplicate using GraphPad Prism.
The anti-proliferative activity of these compounds is evaluated against two breast cancer cell lines, SKBr3 (estrogen receptor negative, Her2 over-expressing breast cancer cells) and MCF-7 (estrogen receptor positive breast cancer cells).

[2] = test system: MCF-7 (estrogen receptor positive breast cancer cells); assay: Anti-proliferation assay (MTS/PMS, 72 h), MCF-7
[3] = test system: SKBr3 (estrogen receptor negative, Her2 over-expressing breast cancer cells); assay: Anti-proliferation assay (MTS/PMS, 72 h), SKBr3
A-549 = assay: Anti-proliferation assay, A-549; conditions: Table 9, non-aryl ureas
Procedure, shortened: (§2)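 Cells seeded at 2000/well, attached overnight, then exposed to varying compound concentrations (1% DMSO final) for 72 h at 37 °C, 5% CO2. Viable cells read by MTS/PMS; 1% DMSO wells set as 100% proliferation. IC50 from separate triplicate experiments.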

DRO81-1 = assay: Anti-proliferation assay, DRO81-1; conditions: Table 9, non-aryl ureas; Thyroid
Procedure, shortened: as §2

PC-3 = assay: Anti-proliferation assay, PC-3; conditions: Table 9, non-aryl ureas; Prostate Cancer
Procedure, shortened: as §2

MDA1986 = assay: Anti-proliferation assay, MDA1986; conditions: Table 9, non-aryl ureas; HSNCC
Procedure, shortened: as §2

BCPAP = assay: Anti-proliferation assay, BCPAP; conditions: Table 9, non-aryl ureas; Thyroid
Method: as §1

JMAR = assay: Anti-proliferation assay, JMAR; conditions: Table 9, non-aryl ureas; HSNCC
Procedure, shortened: as §2

MDAMB231 = assay: Anti-proliferation assay, MDAMB231; conditions: Table 9, non-aryl ureas; Tri-Neg
Procedure, shortened: as §2

HCT-116 = assay: Anti-proliferation assay, HCT-116; conditions: Table 9, non-aryl ureas
Procedure, shortened: as §2

[4] = Homo sapiens, MCF7, Table 2, modified benzamide and biphenylamide derivatives (in μM), read-out: MCF-7
[5] = Homo sapiens, SK-BR-3, Table 2, modified benzamide and biphenylamide derivatives (in μM), read-out: SKBr3
[6] = Table 4, alkylamino analogues, read-out: MCF-7
[7] = Table 4, alkylamino analogues, read-out: SKBr3
[8] = Table 5, alkylether derivatives with cyclic N-substitutions, read-out: MCF-7
[9] = Table 5, alkylether derivatives with cyclic N-substitutions, read-out: SKBr3
[10] = Homo sapiens, MCF7, Table 5, alkylether derivatives with cyclic N-substitutions, read-out: MCF-7
[11] = Homo sapiens, SK-BR-3, Table 5, alkylether derivatives with cyclic N-substitutions, read-out: SKBr3
[12] = Table 9, non-aryl ureas, Breast Cancer, read-out: IC50 MCF-3
[13] = Table 9, non-aryl ureas, Breast Cancer, read-out: IC50 SKBr3

IC50 (A-549) [µM] | IC50 (PC-3) [µM] | IC50 (MDAMB231) [µM] | IC50 (HCT-116) [µM] | Compound | anti-proliferative activity (in words) [1] | IC50 (DRO81-1) [µM] | IC50 (MDA1986) [µM] | IC50 (BCPAP) [µM] | IC50 (JMAR) [µM] | other results
 |  |  |  | COc1cccc(-c2cc(C(=O)Nc3cc4ccc(OC5CCN(C)CC5)c(C)c4oc3=O)ccc2OC(C)=O)c1 [Compound 32a, 3′-methoxy-5-(8-methyl-7-(1-methylpiperidin-4-yloxy)-2-oxo-2H-chromen-3-ylcarbamoyl)biphenyl-2-yl acetate] | maintains inhibitory activity |  |  |  |  | IC50 [2, 4]: 0.91 µM; IC50 [3, 5]: 0.92 ± 0.06 µM
 |  |  |  | COc1ccc(C(=O)Nc2cc3ccc(OC4CCN(C)CC4)c(C)c3oc2=O)cc1-c1cccc(OC(C)=O)c1 [Compound 32b, 2′-methoxy-5′-(8-methyl-7-(1-methylpiperidin-4-yloxy)-2-oxo-2H-chromen-3-ylcarbamoyl)biphenyl-3-yl acetate] | increases activity almost three-fold |  |  |  |  | IC50 [2, 4]: 0.36 ± 0.06 µM; IC50 [3, 5]: 0.29 ± 0.01 µM
 |  |  |  | COc1cccc(-c2cc(C(=O)Nc3cc4ccc(OC5CCN(C)CC5)c(C)c4oc3=O)ccc2O)c1 [Compound 33a, 6-hydroxy-3′-methoxy-N-(8-methyl-7-(1-methylpiperidin-4-yloxy)-2-oxo-2H-chromen-3-yl)biphenyl-3-carboxamide] | maintains inhibitory activity |  |  |  |  | IC50 [2, 4]: 0.81 ± 0.14 µM; IC50 [3, 5]: 0.86 ± 0.16 µM
 |  |  |  | COc1ccc(C(=O)Nc2cc3ccc(OC4CCN(C)CC4)c(C)c3oc2=O)cc1-c1cccc(O)c1 [Compound 33b, 3′-hydroxy-6-methoxy-N-(8-methyl-7-(1-methylpiperidin-4-yloxy)-2-oxo-2H-chromen-3-yl)biphenyl-3-carboxamide] | increases activity almost three-fold |  |  |  |  | IC50 [2, 4]: 0.38 ± 0.08 µM; IC50 [3, 5]: 0.31 ± 0.04 µM
 |  |  |  | CCCN(CCC)CCCOc1ccc2cc(NC(=O)c3ccc(O)c(CC=C(C)C)c3)c(=O)oc2c1C [Compound 68e, N-(7-(3-(dipropylamino)propoxy)-8-methyl-2-oxo-2H-chromen-3-yl)-4-hydroxy-3-(3-methylbut-2-en-1-yl)benzamide] | did not show any activity at the highest concentration |  |  |  |  | IC50 ([2]; Homo sapiens, MCF7, Table 4, alkylamino analogues, read-out: MCF-7): > 50 µM; IC50 ([3]; Homo sapiens, SK-BR-3, Table 4, alkylamino analogues, read-out: SKBr3): > 50 µM
 |  |  |  | COC(=O)CNCCCOc1ccc2cc(NC(=O)c3ccc(O)c(CC=C(C)C)c3)c(=O)oc2c1C [Compound 68l] | decreased anti-proliferative activity |  |  |  |  | IC50 [2, 6]: 2.82 ± 0.27 µM; IC50 [3, 7]: 1.06 ± 0.11 µM
 |  |  |  | CC(C)=CCc1cc(C(=O)Nc2cc3ccc(OCCCNCC(=O)O)c(C)c3oc2=O)ccc1O [Compound 68m] | decreased anti-proliferative activity |  |  |  |  | IC50 [2, 6]: 18.1 ± 5.35 µM; IC50 [3, 7]: 7.57 ± 2.86 µM
 |  |  |  | CC(C)=CCc1cc(C(=O)Nc2cc3ccc(OCCCNCC(N)=O)c(C)c3oc2=O)ccc1O [Compound 68n] | decreased anti-proliferative activity |  |  |  |  | IC50 [2, 6]: 1.46 ± 0.35 µM; IC50 [3, 7]: 2.29 ± 0.47 µM
 |  |  |  | CC(C)=CCc1cc(C(=O)Nc2cc3ccc(OCCCNCCO)c(C)c3oc2=O)ccc1O [Compound 68o] | retains activity |  |  |  |  | IC50 [2, 6]: 1.56 ± 0.09 µM; IC50 [3, 7]: 0.61 ± 0.06 µM
 |  |  |  | CC(C)=CCc1cc(C(=O)Nc2cc3ccc(OCCCNc4ccccc4)c(C)c3oc2=O)ccc1O [Compound 70c] | inactive |  |  |  |  | IC50 [2, 8]: > 50 µM; IC50 [3, 9]: > 50 µM
 |  |  |  | CC(C)=CCc1cc(C(=O)Nc2cc3ccc(OCCCN(C)c4ccccc4)c(C)c3oc2=O)ccc1O [Compound 70d] | inactive |  |  |  |  | IC50 [2, 8]: > 50 µM; IC50 [3, 9]: > 50 µM
 |  |  |  | CC(C)=CCc1cc(C(=O)Nc2cc3ccc(OCCCN(C)Cc4ccccc4)c(C)c3oc2=O)ccc1O [Compound 70h, N-(7-(3-(benzyl(methyl)amino)propoxy)-8-methyl-2-oxo-2H-chromen-3-yl)-4-hydroxy-3-(3-methylbut-2-en-1-yl)benzamide] | greatly decreased activity |  |  |  |  | IC50 [2, 10]: 11.5 ± 4.16 µM; IC50 [3, 11]: 10.7 ± 0.49 µM
 |  |  |  | CC(C)=CCc1cc(C(=O)Nc2cc3ccc(OCCCNC45CC6CC(CC(C6)C4)C5)c(C)c3oc2=O)ccc1O [Compound 70j, N-(7-(3-((3S,5S,7S)-adamantan-1-ylamino)propoxy)-8-methyl-2-oxo-2H-chromen-3-yl)-4-hydroxy-3-(3-methylbut-2-en-1-yl)benzamide] | good anti-proliferative activity |  |  |  |  | IC50 [2, 10]: 0.32 ± 0.03 µM; IC50 [3, 11]: 0.31 ± 0.04 µM
 |  |  |  | Cc1c(OC2CCN(C)CC2)ccc2cc(NC(=O)Nc3ccccc3)c(=O)oc12 [H, 1-(8-methyl-7-((1-methylpiperidin-4-yl)oxy)-2-oxo-2H-chromen-3-yl)-3-phenylurea] |  |  |  |  |  | increase in inhibition, urea versus amide linkage ([1]; text b189, two breast cancer cell lines): ~15 fold; IC50 ([2]; Homo sapiens, MCF7, amide versus urea linkage, read-out: IC50 for MCF-3): 0.89 µM; IC50 ([3]; Homo sapiens, SK-BR-3, amide versus urea linkage, read-out: IC50 for SKBr3): 0.77 µM
4.85 ± 0.29 | 4.54 ± 0.46 | 3.8 | 12.1 ± 0.61 | Cc1c(OC2CCN(C)CC2)ccc2cc(NC(=O)NC(C)(C)C)c(=O)oc12 [drawing 157] |  | > 25 | 21.5 | 2.57 | 2.1 | IC50 [2, 12]: 1.77 ± 0.26 µM; IC50 [3, 13]: 3.96 ± 0.14 µM
18.3 ± 12 | 115 | > 25 | > 100 | Cc1c(OC2CCN(C)CC2)ccc2cc(NC(=O)N3CCN(C)CC3)c(=O)oc12 [drawing 158] |  | > 25 | > 25 | > 25 | > 25 | IC50 [2, 12]: 32.1 ± 4.78 µM; IC50 [3, 13]: > 50 µM
0.28 ± 0.03 | 0.87 ± 0.33 | 7.9 | 0.66 ± 0.15 | Cc1c(OC2CCN(C)CC2)ccc2cc(NC(=O)NCc3ccccc3)c(=O)oc12 [drawing 159] |  | 14.6 | 14.4 | 0.045 | > 25 | 
3.57 ± 0.55 | 1.27 ± 0.09 | 2.8 | 5.95 ± 2.92 | Cc1c(OC2CCN(C)CC2)ccc2cc(NC(=O)N(Cc3ccccc3)Cc3ccccc3)c(=O)oc12 [drawing 161] |  | 1.9 | 3.65 | 1.81 | 0.7 | IC50 [2, 12]: 3.36 ± 0.16 µM; IC50 [3, 13]: 1.21 ± 0.02 µM
0.87 ± 0.21 | 1.12 ± 0.05 | 4.3 | 0.96 ± 0.16 | Cc1c(OC2CCN(C)CC2)ccc2cc(NC(=O)NC(c3ccccc3)c3ccccc3)c(=O)oc12 [drawing 162] |  | 1.3 | 7.1 | 5.76 | 5.9 | IC50 [2, 12]: 0.54 ± 0.01 µM; IC50 [3, 13]: 0.49 ± 0.07 µM

Compound | IC50 (A-549) [µM] | IC50 (PC-3) [µM] | IC50 (MDAMB231) [µM] | IC50 (HCT-116) [µM] | anti-proliferative activity (in words) [1] | IC50 (DRO81-1) [µM] | IC50 (MDA1986) [µM] | IC50 (BCPAP) [µM] | IC50 (JMAR) [µM] | other results
Cc1c(OC2CCN(C)CC2)ccc2cc(NC(=O)N(C)Cc3ccccc3)c(=O)oc12 [drawing 160] | 138 | 28.7 ± 24.6 | > 25 | 183 |  | 19.5 | 13.4 | 0.0084 | 7.5 | 
